# According to patent US20240197706A1, “METHODS OF IMPROVING THE PHARMACOKINETICS OF MIGALASTAT” (Amicus Therapeutics, Inc., priority 2022, published 2024):
# Like-named read-outs stand apart in the source and are kept apart here.
# Key:
# [1] = AT1001-045 study: plasma migalastat bioavailability of 150 mg migalastat HCl capsule with caffeine and sweetener beverages relative to water; format: in vivo, human (healthy subjects); conditions: 280 mL of coffee containing approximately 190 mg caffeine at the time of dosing, compared to water
# [2] = taken with food; cited from earlier work
# [3] = AT1001-045 study: plasma migalastat bioavailability of 150 mg migalastat HCl capsule with caffeine and sweetener beverages relative to water; format: in vivo, human (healthy subjects); conditions: for AUC0-t Ratio / AUC0-∞ Ratio / Cmax Ratio: percent scale; for Cmax / AUC(0-t) / AUC(0-inf) / Tmax / half-life: both sexes, human, plasma, po, 150 mg; for Cmax: read-out: Cmax GeoMean; for AUC(0-t): read-out: AUC0-t GeoMean; for AUC(0-inf): read-out: AUC0-∞ GeoMean; for Tmax: read-out: tmax Median; for half-life: read-out: t1/2 Mean (converted)
# Experimental: The example describes the AT1001-045 study, which was an open-label study of the bioavailability, safety and tolerability of migalastat in combination with caffeine and sweeteners.
# The primary objective was to evaluate plasma migalastat bioavailability of the 150 mg migalastat HCl capsule in a caffeinated beverage, a sucrose beverage, a combination caffeinated and sucrose beverage, an aspartame artificial sweetener beverage, and an acesulfame potassium artificial sweetener beverage relative to water in healthy subjects.
# The primary endpoints were ANOVA comparisons of interest between each test treatment and reference treatment for Cmax, AUC0-t and AUC0-∞. The comparisons of interest were point estimate ratios and lower/upper 90% confidence intervals.
# This was a single-center, single dose, randomized, open-label, 6-way crossover study. Each subject received a single oral dose of migalastat HCl 150 mg for each of 6 periods.
# In randomized sequence, each subject received a 150 mg migalastat HCl capsule with a caffeinated beverage, a sucrose drink, a combination caffeinated and sucrose beverage, an aspartame artificial sweetener drink, an acesulfame potassium artificial sweetener drink, or water.
# All study treatments were administered in the fasted condition (overnight+4 hours post-dose).
# Each single dose administration was followed by a 72-hour PK sampling period which also served as the between-treatment washout interval.
# Appropriate migalastat exposure ratios (Cmax and AUC) with corresponding 90% confidence intervals will be used to address the comparisons of interest: • Caffeine (test) vs. water (reference) • Sucrose (test) vs. water (reference) • Caffeine+Sucrose (test) vs. water (reference) • Aspartame (test) vs. water (reference) • Acesulfame K (test) vs. water (reference)
# • Study Population: male and female healthy subjects 18 to 45 years of age. • Sample Size: 20 subjects balanced for gender. • Dose: A single 150 mg capsule of migalastat hydrochloride, provided as GALAFOLD®.
# The following test treatments were prepared: • Caffeinated beverage: 8 oz of caffeinated tea; nothing added; administered warm (40 to 50 degrees C.) and consumed within 10 minutes • Sucrose drink: 8 oz sucrose solution prepared with 26 grams sucrose, chilled before drug administration, and consumed within 10 minutes • Equivalent to sucrose content in one 8 oz serving of cane sugar-containing Coca-Cola® • Caffeinated+Sucrose drink: 8 oz caffeinated/sucrose beverage, chilled before drug administration, and consumed within 10 minutes (e.g., Jolt®) • Aspartame: 8 oz aspartame solution prepared with 125 mg aspartame, chilled before drug administration, and consumed within 10 minutes • Equivalent to aspartame content in one 8 oz can of Diet Coke® • Acesulfame K: 8 oz acesulfame K solution prepared with 30 mg acesulfame K, chilled before drug administration, and consumed within 10 minutes • Equivalent to acesulfame K content in one 8 oz can of Diet Coke® or Coca-Cola® Zero Sugar
# [4] = Acesulfame K (test) vs. water (reference)
# [5] = Aspartame (test) vs. water (reference)
# [6] = Caffeine (test) vs. water (reference)
# [7] = Caffeine + Sucrose (test) vs. water (reference)
# [8] = Sucrose (test) vs. water (reference)
# [9] = single oral 150 mg migalastat HCl capsule, fasted, with Acesulfame K drink
# [10] = single oral 150 mg migalastat HCl capsule, fasted, with Aspartame drink
# [11] = single oral 150 mg migalastat HCl capsule, fasted, with Caffeine + Sucrose drink
# [12] = single oral 150 mg migalastat HCl capsule, fasted, with Caffeine beverage
# [13] = single oral 150 mg migalastat HCl capsule, fasted, with Sucrose drink
# [14] = single oral 150 mg migalastat HCl capsule, fasted, with water (reference)
structure (smiles),measurement,setting,value
"OC[C@H]1NC[C@H](O)[C@@H](O)[C@H]1O [migalastat, (2R,3S,4R,5S)-2-(hydroxymethyl) piperdine-3,4,5-triol]",mean reduction in Cmax,[1],60%
same,decrease in migalastat exposure,[2],approximately 40%
same,mean reduction in AUC0-∞,"[3]; 280 mL of coffee containing approximately 190 mg caffeine at the time of dosing, compared to water",57%
same,AUC0-t Ratio,[3]; [4],93.9
same,AUC0-∞ Ratio,[3]; [4],96.1
same,Cmax Ratio,[3]; [4],92.3
same,AUC0-t Ratio,[3]; [5],104.9
same,AUC0-∞ Ratio,[3]; [5],102.9
same,Cmax Ratio,[3]; [5],103.3
same,AUC0-t Ratio,[3]; [6],43.1
same,AUC0-∞ Ratio,[3]; [6],45.8
same,Cmax Ratio,[3]; [6],39.9
same,AUC0-t Ratio,[3]; [7],46.9
same,AUC0-∞ Ratio,[3]; [7],47.7
same,Cmax Ratio,[3]; [7],45.9
same,AUC0-t Ratio,[3]; [8],92.2
same,AUC0-∞ Ratio,[3]; [8],91.8
same,Cmax Ratio,[3]; [8],95.3
same,Cmax,"[3]; single oral 150 mg migalastat HCl capsule, fasted, healthy subjects, with water (reference)",1330 ng/mL
same,AUC(0-t),[3]; [9],8120 ng·h/mL
same,AUC(0-inf),[3]; [9],8640 ng·h/mL
same,Cmax,[3]; [9],1220 ng/mL
same,Tmax,[3]; [9],4 h
same,AUC(0-t),[3]; [10],9080 ng·h/mL
same,AUC(0-inf),[3]; [10],9080 ng·h/mL
same,Cmax,[3]; [10],1370 ng/mL
same,half-life,[3]; [10],8.1 h
same,Tmax,[3]; [10],4 h
same,AUC(0-t),[3]; [11],4050 ng·h/mL
same,AUC(0-inf),[3]; [11],4270 ng·h/mL
same,Cmax,[3]; [11],611 ng/mL
same,half-life,[3]; [11],8.8 h
same,Tmax,[3]; [11],3 h
same,AUC(0-t),[3]; [12],3720 ng·h/mL
same,AUC(0-inf),[3]; [12],4100 ng·h/mL
same,Cmax,[3]; [12],529 ng/mL
same,half-life,[3]; [12],10.2 h
same,Tmax,[3]; [12],3 h
same,AUC(0-t),[3]; [13],7960 ng·h/mL
same,AUC(0-inf),[3]; [13],8030 ng·h/mL
same,Cmax,[3]; [13],1260 ng/mL
same,half-life,[3]; [13],7.8 h
same,Tmax,[3]; [13],3 h
same,AUC(0-t),[3]; [14],8620 ng·h/mL
same,AUC(0-inf),[3]; [14],8610 ng·h/mL
same,half-life,[3]; [14],7.5 h
same,Tmax,[3]; [14],4 h
same,rate of absorption (tmax) effect,[3]; coffee or sweetened beverages in comparison to water,not affected
same,AUC0-∞ GeoMean,[3]; [9],8621 ng·h/mL
same,t1/2 Mean,[3]; [9],7.2 h
same,AUC0-∞ GeoMean,[3]; [10],9043 ng·h/mL
same,AUC0-∞ GeoMean,[3]; [13],8008 ng·h/mL
same,AUC0-∞ GeoMean,[3]; [14],8570 ng·h/mL
same,mean difference in AUC (decrease),[3]; sucrose vs water,8%
same,bioequivalence to water (90% CI within 80% to 125%),[3]; with acesulfame K,bioequivalent to water
same,bioequivalence to water (90% CI within 80% to 125%),[3]; with aspartame,bioequivalent to water
same,bioequivalence to water (90% CI within 80% to 125%),[3]; with sucrose,very close to bioequivalent
